Literature values in US20090255536A1, “Biofilm-Inhibiting Catheters and Tubings” (priority 2008, published 2009).

Experiments:
Pseudomonas aeruginosa = details: topical exogenous gNO at 200 ppm for extended periods of time
Escherichia coli = details: topical exogenous gNO at 200 ppm for extended periods of time
[1] = test system: cultured human dermal fibroblasts; details: gNO at 200 ppm for extended periods of time
Candida albicans = details: topical exogenous gNO at 200 ppm for extended periods of time
[2] = test system: S. aureus and P. aeruginosa; details: exogenous gNO at 200 ppm
Group B Streptococcus = details: topical exogenous gNO at 200 ppm for extended periods of time
Staphylococcus aureus = details: topical exogenous gNO at 200 ppm for extended periods of time

In the case of `[N]=O` [gNO, nitric oxide], the “growth of Pseudomonas aeruginosa” value (Pseudomonas aeruginosa) is given as “inhibited and prevented the growth”, the “growth of Escherichia coli” value (Escherichia coli) is given as “inhibited and prevented the growth” and the “cytotoxic effects on cultured human dermal fibroblasts” value [1] is given as “without any cytotoxic effects”. For the same compound, the “growth of Candida albicans” value (Candida albicans) was “inhibited and prevented the growth”, the “time to clear nosocomial pneumonia caused by microbial pathogens” value [2] was “about 6 hours” and the “growth of Group B Streptococcus” value (Group B Streptococcus) was “inhibited and prevented the growth”. For the same compound, the “growth of Staphylococcus aureus” value (Staphylococcus aureus) was “inhibited and prevented the growth”.
